Measurements: patent US20230357310A1, “Saponin derivatives with improved therapeutic window” (priority 2019, published 2023)

Experiments:
[1] = Critical micellar concentration (ANS fluorescence); type: physicochemical; details: for CMC compared with native (underivatised) saponin: comparison in words; for CMC: SO saponins, determined in PBS, Table A7
Experimental: The critical micellar concentration (CMC) of saponins derived from Saponaria officinalis (SO) (Table A7) and derived from Quillaja saponaria (QS) (Table A8, and Table A9) was determined by the method of DeVendittis et al. (A fluorimetric method for the estimation of the critical micelle concentration of surfactants, Analytical Biochemistry, Volume 115, Issue 2, August 1981, Pages 278-286) as follows:
The emission spectrum of 8-Anilinonaphthalene-1-sulfonic acid (ANS) in either purified water (MQ) or PBS (Dulbecco's PBS+/+) was determined at dry weight concentrations of saponins ranging from 1 to 1400 μM to cover the range below and above the CMC. Above the CMC, the fluorescence yield of ANS increases and the wavelength of maximum emission decreases due to portioning of the fluorescent dye into micelles. Fluorescence yields were recorded on a Fluoroskan Ascent FL (Thermo Scientific) at an excitation wavelength of 355 nm, and an emission wavelength of 460 nm. 6 μg at a concentration of 75.86 μM of ANS were used per sample and measurement.

[2] = system: EGFR expressing cells (HeLa); experiment: cells; details: summary statement in the description

In the case of `CC(=O)OC1C(C)OC(OC2C(C)OC(OC(=O)C34CCC(C)(C)CC3C3=CCC5C6(C)CCC(OC7OC(C(=O)O)C(O)C(OC8OCC(O)C(O)C8O)C7OC7OC(CO)C(O)C(O)C7O)C(C)(C=NNC(=O)CCCCCN7C(=O)C=CC7=O)C6CCC5(C)C3(C)CC4O)C(OC3OC(C)C(OC4OCC(O)C(OC5OC(CO)C(O)C(O)C5O)C4O)C(O)C3O)C2O)C(O)C1OC1OCC(O)C(O)C1O` (stereo not drawn) [Molecule 2], the “CMC compared with native (underivatised) saponin” value (“CMC compared with native” below) [1] is reported as “increased CMC”.

In the case of `CC(=O)OC1C(C)OC(OC2C(C)OC(OC(=O)[C@]34CCC(C)(C)CC3C3=CCC5[C@@]6(C)CC[C@H](OC7OC(C(=O)NC(C)(CO)CO)C(O)C(OC8OCC(O)C(O)C8O)C7OC7OC(CO)C(O)C(O)C7O)[C@@](C)(C=O)C6CC[C@@]5(C)[C@]3(C)C[C@H]4O)C(OC3OC(C)C(OC4OCC(O)C(OC5OC(CO)C(O)C(O)C5O)C4O)C(O)C3O)C2O)C(O)C1OC1OCC(O)C(O)C1O` (stereo partly drawn) [Molecule 3A], the “endosomal escape enhancing activity (enhancement of cytotoxicity of ADC / effector molecules)” value [2] is reported as “display activity”.

For `CC(=O)OC1C(C)OC(OC2C(C)OC(OC(=O)[C@]34CCC(C)(C)CC3C3=CCC5[C@@]6(C)CC[C@H](OC7OC(C(=O)NC(C)(CO)CO)C(O)C(OC8OCC(O)C(O)C8O)C7OC7OC(CO)C(O)C(O)C7O)[C@@](C)(CO)C6CC[C@@]5(C)[C@]3(C)C[C@H]4O)C(OC3OC(C)C(OC4OCC(O)C(OC5OC(CO)C(O)C(O)C5O)C4O)C(O)C3O)C2O)C(O)C1OC1OCC(O)C(O)C1O` (stereo partly drawn) [Molecule 9], the “endosomal escape enhancing activity (enhancement of cytotoxicity of ADC / effector molecules)” value [2] was “have the capacity to enhance the cytotoxic effect”.

For `CC1OC(OC2C(C)OC(OC(=O)[C@]34CCC(C)(C)CC3C3=CCC5[C@@]6(C)CC[C@H](OC7OC(C(=O)NC(C)(CO)CO)C(O)C(OC8OCC(O)C(O)C8O)C7OC7OC(CO)C(O)C(O)C7O)[C@@](C)(C=O)C6CC[C@@]5(C)[C@]3(C)C[C@H]4O)C(OC3OC(C)C(OC4OCC(O)C(OC5OC(CO)C(O)C(O)C5O)C4O)C(O)C3O)C2O)C(O)C(OC2OCC(O)C(O)C2O)C1O` (stereo partly drawn) [Molecule 11], the “endosomal escape enhancing activity (enhancement of cytotoxicity of ADC / effector molecules)” value [2] was “display activity”.

In the case of `CC1OC(OC2C(C)OC(OC(=O)[C@]34CCC(C)(C)CC3C3=CCC5[C@@]6(C)CC[C@H](OC7OC(C(=O)NC(C)(CO)CO)C(O)C(OC8OCC(O)C(O)C8O)C7OC7OC(CO)C(O)C(O)C7O)[C@@](C)(C=O)C6CC[C@@]5(C)[C@]3(C)C[C@H]4O)C(OC3OC(C)C(OC4OCC(O)C(OC5OC(CO)C(O)C(O)C5O)C4O)C(O)C3O)C2O)C(O)C(OC2OCC(O)C(O)C2O)C1O` (stereo partly drawn) [SO1861-(Ac—OH)-(Glu-AMPD)], the “CMC compared with native” value [1] is reported as “lower CMC values”.

With `CC1OC(OC2C(C)OC(OC(=O)C34CCC(C)(C)CC3C3=CCC5C6(C)CCC(OC7OC(C(=O)O)C(O)C(OC8OCC(O)C(O)C8O)C7OC7OC(CO)C(O)C(O)C7O)C(C)(C=NNC(=O)CCCCCN7C(=O)C=CC7=O)C6CCC5(C)C3(C)CC4O)C(OC3OC(C)C(OC4OCC(O)C(OC5OC(CO)C(O)C(O)C5O)C4O)C(O)C3O)C2O)C(O)C(OC2OCC(O)C(O)C2O)C1O` (stereo not drawn) [SO1861-(Ald-EMCH)-(Ac—OH)] the “CMC” value [1] was >300 µM and the “CMC compared with native” value ([1]; listed as SO1861-(Ald-EMCH)—(Ac—OH)) was “increased CMC values”.

For `CC(=O)OC1C(C)OC(OC2C(C)OC(OC(=O)C34CCC(C)(C)CC3C3=CCC5C6(C)CCC(OC7OC(C(=O)NC(C)(CO)CO)C(O)C(OC8OCC(O)C(O)C8O)C7OC7OC(CO)C(O)C(O)C7O)C(C)(C=NNC(=O)CCCCCN7C(=O)C=CC7=O)C6CCC5(C)C3(C)CC4O)C(OC3OC(C)C(OC4OCC(O)C(OC5OC(CO)C(O)C(O)C5O)C4O)C(O)C3O)C2O)C(O)C1OC1OCC(O)C(O)C1O` (stereo not drawn) [SO1861-(Ald-EMCH)-(Glu-AMPD)], the “CMC” value [1] was >30 µM and the “CMC compared with native” value [1] was “lower CMC values”.

With `CC1OC(OC2C(C)OC(OC(=O)[C@]34CCC(C)(C)CC3C3=CCC5[C@@]6(C)CC[C@H](OC7OC(C(=O)O)C(O)C(OC8OCC(O)C(O)C8O)C7OC7OC(CO)C(O)C(O)C7O)[C@@](C)(CO)C6CC[C@@]5(C)[C@]3(C)C[C@H]4O)C(OC3OC(C)C(OC4OCC(O)C(OC5OC(CO)C(O)C(O)C5O)C4O)C(O)C3O)C2O)C(O)C(OC2OCC(O)C(O)C2O)C1O` (stereo partly drawn) [SO1861-(Ald-OH)-(Ac—OH)] the “CMC” value [1] was >280 µM and the “CMC compared with native” value ([1]; listed as SO1861-(Ald-OH)—(Ac—OH)) was “increased CMC values”.

For `CC(=O)OC1C(C)OC(OC2C(C)OC(OC(=O)[C@]34CCC(C)(C)CC3C3=CCC5[C@@]6(C)CC[C@H](OC7OC(C(=O)NC(C)(CO)CO)C(O)C(OC8OCC(O)C(O)C8O)C7OC7OC(CO)C(O)C(O)C7O)[C@@](C)(CO)C6CC[C@@]5(C)[C@]3(C)C[C@H]4O)C(OC3OC(C)C(OC4OCC(O)C(OC5OC(CO)C(O)C(O)C5O)C4O)C(O)C3O)C2O)C(O)C1OC1OCC(O)C(O)C1O` (stereo partly drawn) [SO1861-(Ald-OH)-(Glu-AMPD)], the “CMC compared with native” value [1] was “lower CMC values”.

For `CC1OC(OC2C(C)OC(OC(=O)[C@]34CCC(C)(C)CC3C3=CCC5[C@@]6(C)CC[C@H](OC7OC(C(=O)NCCN8C(=O)C=CC8=O)C(O)C(OC8OCC(O)C(O)C8O)C7OC7OC(CO)C(O)C(O)C7O)[C@@](C)(C=O)C6CC[C@@]5(C)[C@]3(C)C[C@H]4O)C(OC3OC(C)C(OC4OCC(O)C(OC5OC(CO)C(O)C(O)C5O)C4O)C(O)C3O)C2O)C(O)C(OC2OCC(O)C(O)C2O)C1O` (stereo partly drawn) [SO1861-(Glu-AEM)-(Ac—OH)], the “CMC compared with native” value [1] was “lower CMC values”.

For `CC1OC(OC2C(C)OC(OC(=O)[C@]34CCC(C)(C)CC3C3=CCC5[C@@]6(C)CC[C@H](OC7OC(C(=O)NCCN8C(=O)C=CC8=O)C(O)C(OC8OCC(O)C(O)C8O)C7OC7OC(CO)C(O)C(O)C7O)[C@@](C)(CO)C6CC[C@@]5(C)[C@]3(C)C[C@H]4O)C(OC3OC(C)C(OC4OCC(O)C(OC5OC(CO)C(O)C(O)C5O)C4O)C(O)C3O)C2O)C(O)C(OC2OCC(O)C(O)C2O)C1O` (stereo partly drawn) [SO1861-(Glu-AEM)-(Ald-OH)-(Ac—OH)], the “CMC” value [1] was >150 µM.

With `CC(=O)OC1C(C)OC(OC2C(C)OC(OC(=O)[C@]34CCC(C)(C)CC3C3=CCC5[C@@]6(C)CC[C@H](OC7OC(C(=O)NCCN8C(=O)C=CC8=O)C(O)C(OC8OCC(O)C(O)C8O)C7OC7OC(CO)C(O)C(O)C7O)[C@@](C)(CO)C6CC[C@@]5(C)[C@]3(C)C[C@H]4O)C(OC3OC(C)C(OC4OCC(O)C(OC5OC(CO)C(O)C(O)C5O)C4O)C(O)C3O)C2O)C(O)C1OC1OCC(O)C(O)C1O` (stereo partly drawn) [SO1861-(Glu-AEM)-(Ald-OH)] the “CMC compared with native” value [1] was “lower CMC values”.

In the case of `CC1OC(OC2C(C)OC(OC(=O)[C@]34CCC(C)(C)CC3C3=CCC5[C@@]6(C)CC[C@H](OC7OC(C(=O)O)C(O)C(OC8OCC(O)C(O)C8O)C7OC7OC(CO)C(O)C(O)C7O)[C@@](C)(C=O)C6CC[C@@]5(C)[C@]3(C)C[C@H]4O)C(OC3OC(C)C(OC4OCC(O)C(OC5OC(CO)C(O)C(O)C5O)C4O)C(O)C3O)C2O)C(O)C(OC2OCC(O)C(O)C2O)C1O` (stereo partly drawn) [SO1861-Ac—OH], the “CMC compared with native” value [1] is reported as “higher CMC values”.

With `CC(=O)OC1C(C)OC(OC2C(C)OC(OC(=O)[C@]34CCC(C)(C)CC3C3=CCC5[C@@]6(C)CC[C@H](OC7OC(C(=O)O)C(O)C(OC8OCC(O)C(O)C8O)C7OC7OC(CO)C(O)C(O)C7O)[C@@](C)(CO)C6CC[C@@]5(C)[C@]3(C)C[C@H]4O)C(OC3OC(C)C(OC4OCC(O)C(OC5OC(CO)C(O)C(O)C5O)C4O)C(O)C3O)C2O)C(O)C1OC1OCC(O)C(O)C1O` (stereo partly drawn) [SO1861-Ald-OH] the “CMC compared with native” value [1] was “higher CMC values”.

For `CC(=O)OC1C(C)OC(OC2C(C)OC(OC(=O)[C@]34CCC(C)(C)CC3C3=CCC5[C@@]6(C)CC[C@H](OC7OC(C(=O)NC(C)(CO)CO)C(O)C(OC8OCC(O)C(O)C8O)C7OC7OC(CO)C(O)C(O)C7O)[C@@](C)(C=O)C6CC[C@@]5(C)[C@]3(C)C[C@H]4O)C(OC3OC(C)C(OC4OCC(O)C(OC5OC(CO)C(O)C(O)C5O)C4O)C(O)C3O)C2O)C(O)C1OC1OC(C)C(O)C(O)C1O` (stereo partly drawn) [SO1861-Glu-AMPD], the “CMC compared with native” value [1] was “lower CMC values”.
